Data published in ChEMBL document CHEMBL4400564, “Structure-activity relationship studies of Bz amide-containing α-GalCer derivatives as natural killer T cell modulators” (Bioorg Med Chem Lett, 2019).
Active and inactive are the calls of the source.

Experiments:
[1] = biological target: T1, Antigen-presenting glycoprotein CD1d1 (Mus musculus) (UniProt P11609); test: Binding affinity to Ig-tagged mouse CD1d assessed as increase in IL-2 production in NKT hybridoma cells exposed to 24 hrs pre-treated compound/CD1d mixture and measured after 48 hrs by ELISA based APC free assay; type: cell-based
T1 sequence (whole entry): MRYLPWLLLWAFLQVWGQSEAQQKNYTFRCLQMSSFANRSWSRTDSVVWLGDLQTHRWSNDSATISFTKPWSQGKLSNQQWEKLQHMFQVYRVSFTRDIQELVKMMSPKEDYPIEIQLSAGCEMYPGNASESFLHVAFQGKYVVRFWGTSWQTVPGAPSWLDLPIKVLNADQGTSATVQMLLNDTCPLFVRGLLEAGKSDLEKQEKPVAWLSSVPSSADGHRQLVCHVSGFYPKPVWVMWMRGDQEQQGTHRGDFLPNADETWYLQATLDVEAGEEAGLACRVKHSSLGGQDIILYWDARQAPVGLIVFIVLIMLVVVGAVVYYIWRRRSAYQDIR

Splenocyte [2] = test: Induction of IL-4 production in C57BL/6J mouse splenocyte at 1 to 100 nM after 48 hrs by ELISA relative to alpha-GalCer; type: functional, cell-based
Splenocyte [3] = test: Reduction of IFN-gamma production in C57BL/6J mouse splenocyte at 1 to 100 nM after 48 hrs by ELISA relative to alpha-GalCer; type: functional, cell-based

Measured: Activity

CCCCCCCCCCCCCC[C@@H](O)[C@@H](O)[C@H](CO[C@H]1O[C@H](CO)[C@H](O)[C@H](O)[C@H]1O)NC(=O)CCCCCCCCCCCNC(=O)c1ccc(OC)cc1
active: [1] Dose-dependent effect | Splenocyte [2] | Splenocyte [3]

CCCCCCCCCCCCCC[C@@H](O)[C@@H](O)[C@H](CO[C@H]1O[C@H](CO)[C@H](O)[C@H](O)[C@H]1O)NC(=O)CCCCCCCCCCCNC(=O)c1cccc(OC)c1
active: [1] Dose-dependent effect | Splenocyte [2] | Splenocyte [3]

CCCCCCCCCCCCCC[C@@H](O)[C@@H](O)[C@H](CO[C@H]1O[C@H](CO)[C@H](O)[C@H](O)[C@H]1O)NC(=O)CCCCCCCCCCCNC(=O)c1ccccc1F
active: [1] Dose-dependent effect | Splenocyte [2] | Splenocyte [3]

CCCCCCCCCCCCCC[C@@H](O)[C@@H](O)[C@H](CO[C@H]1O[C@H](CO)[C@H](O)[C@H](O)[C@H]1O)NC(=O)CCCCCCCCCCCNC(=O)c1ccccc1OC
active: [1] Dose-dependent effect | Splenocyte [2] | Splenocyte [3]

CCCCCCCCCCCCCC[C@@H](O)[C@@H](O)[C@H](CO[C@H]1O[C@H](CO)[C@H](O)[C@H](O)[C@H]1O)NC(=O)CCCCCCCCCCCNC(=O)C1CCCCC1
active: [1] Dose-dependent effect | Splenocyte [2] | Splenocyte [3]

CCCCCCCCCCCCCC[C@@H](O)[C@@H](O)[C@H](CO[C@H]1O[C@H](CO)[C@H](O)[C@H](O)[C@H]1O)NC(=O)CCCCCCCCCCCNC(=O)C1CCNCC1
active: [1] Dose-dependent effect | Splenocyte [2] | Splenocyte [3]

CCCCCCCCCCCCCC[C@@H](O)[C@@H](O)[C@H](CO[C@H]1O[C@H](CO)[C@H](O)[C@H](O)[C@H]1O)NC(=O)CCCCCCCCCCCNC(=O)c1ccccc1
active: [1] Dose-dependent effect | Splenocyte [2] | Splenocyte [3]

CCCCCCCCCCCCCC[C@@H](O)[C@@H](O)[C@H](CO[C@H]1O[C@H](CO)[C@H](O)[C@H](O)[C@H]1O)NC(=O)CCCCCCCCCCCNC(=O)c1cccc(F)c1
active: [1] Dose-dependent effect | Splenocyte [2] | Splenocyte [3]

CCCCCCCCCCCCCC[C@@H](O)[C@@H](O)[C@H](CO[C@H]1O[C@H](CO)[C@H](O)[C@H](O)[C@H]1O)NC(=O)CCCCCCCCCCCNC(=O)c1ccc(F)cc1
active: [1] Dose-dependent effect | Splenocyte [2] | Splenocyte [3]

CCCCCCCCCCCCCC[C@@H](O)[C@@H](O)[C@H](CO[C@H]1O[C@H](CO)[C@H](O)[C@H](O)[C@H]1O)NC(=O)CCCCCCCCCCCNC(=O)C(C)(C)C
active: [1] Dose-dependent effect | Splenocyte [2] | Splenocyte [3]
